Assay results published in patent publication US20210254056A1, “IDENTIFICATION AND TARGETED MODULATION OF GENE SIGNALING NETWORKS” (CAMP4 THERAPEUTICS CORPORATION, priority 2017, published 2021).

Tested on: hepatocytes
Test: RNA-seq of hepatocytes treated with Phase III failure compounds
Description: RNA-seq was performed to determine the effects of the compounds on hepatocytes.
Significance was determined by the criteria of FPKM≥0.5, a log 2(fold-change)≥1, and a […].

SMILES: CCOC(=O)N1c2ccc(C(F)(F)F)cc2[C@@H](N(Cc2cc(C(F)(F)F)cc(C(F)(F)F)c2)C(=O)OC)C[C@H]1CC [Torcetrapib]
- RNA-seq results, CYP2B6 expression: 0.36
- RNA-seq results, CYP2C19 expression: 0.61
- RNA-seq results, CYP2D6 expression: −0.16
- RNA-seq results, CYP3A4 expression: 1.87
- RNA-seq results, CYP7B1 expression: 0.26
- RNA-seq results, CYP39A1 expression: 0.03
- RNA-seq results: CYP2B6 expression: 0.09
- RNA-seq results: CYP2C19 expression: −0.14
- RNA-seq results: CYP2D6 expression: 0.24
- RNA-seq results: CYP3A4 expression: 0.49
- RNA-seq results: CYP7B1 expression: −0.44
- RNA-seq results: CYP39A1 expression: 0
- significant modulation of expression of disease genes (RNA-seq, q≤0.05, hepatocytes, genes in the value or listed in the block): significantly (q≤0.05) modulate expression of the following genes: ACTG2, CYP3A4, ID1, KMT2D, and UTRN
- RNA-seq results: A1BG expression (gene A1BG, hepatocytes): −0.38
- RNA-seq results: AGTR1 expression (gene AGTR1, hepatocytes): −0.45
- RNA-seq results: AGXT expression (gene AGXT, hepatocytes): −0.25
- RNA-seq results: AHI1 expression (gene AHI1, hepatocytes): 0.19
- RNA-seq results: AMPD3 expression (gene AMPD3, hepatocytes): 0.28
- RNA-seq results: AMT expression (gene AMT, hepatocytes): −0.11
- RNA-seq results: ANGPTL3 expression (gene ANGPTL3, hepatocytes): −0.46
- RNA-seq results: ANKS4B expression (gene ANKS4B, hepatocytes): −0.02
- RNA-seq results: ANKS6 expression (gene ANKS6, hepatocytes): 0.19
- RNA-seq results: ANPEP expression (gene ANPEP, hepatocytes): −0.19
- RNA-seq results: AOC2 expression (gene AOC2, hepatocytes): 0.53
- RNA-seq results: APOA2 expression (gene APOA2, hepatocytes): −0.76
- RNA-seq results: APOA5 expression (gene APOA5, hepatocytes): −0.36
- RNA-seq results: APOB expression (gene APOB, hepatocytes): 0.90
- RNA-seq results: COG5 expression (gene COG5, hepatocytes): 0.24
- RNA-seq results: COG6 expression (gene COG6, hepatocytes): 0.29
- RNA-seq results: COL1A1 expression (gene COL1A1, hepatocytes): −0.43
- RNA-seq results: COX6A1 expression (gene COX6A1, hepatocytes): 0.62
- RNA-seq results: CP expression (gene CP, hepatocytes): −0.27
- RNA-seq results: CPS1 expression (gene CPS1, hepatocytes): −0.75
- RNA-seq results: CPT1A expression (gene CPT1A, hepatocytes): −0.4
- RNA-seq results: CPT2 expression (gene CPT2, hepatocytes): −0.1
- RNA-seq results: CROT expression (gene CROT, hepatocytes): −0.33
- RNA-seq results: CSPP1 expression (gene CSPP1, hepatocytes): 0.17
- RNA-seq results: CTC1 expression (gene CTC1, hepatocytes): −0.2
- RNA-seq results: CTDSP2 expression (gene CTDSP2, hepatocytes): 0.03
- RNA-seq results: CTH expression (gene CTH, hepatocytes): 2.52
- RNA-seq results: CTNS expression (gene CTNS, hepatocytes): −0.12
- RNA-seq results: CTSF expression (gene CTSF, hepatocytes): 0.3
- RNA-seq results: CTSK expression (gene CTSK, hepatocytes): 0
- RNA-seq results: CYB5A expression (gene CYB5A, hepatocytes): 0.21
- RNA-seq results: CYB5R3 expression (gene CYB5R3, hepatocytes): 0.07
- RNA-seq results: CYP27A1 expression (gene CYP27A1, hepatocytes): 0.12
- RNA-seq results: DAO expression (gene DAO, hepatocytes): −0.72
- RNA-seq results: DBT expression (gene DBT, hepatocytes): 0
- RNA-seq results: DCDC2 expression (gene DCDC2, hepatocytes): −0.51
- RNA-seq results: DCXR expression (gene DCXR, hepatocytes): 0.37
- RNA-seq results: FABP1 expression (gene FABP1, hepatocytes): 0.58
- RNA-seq results: FADD expression (gene FADD, hepatocytes): 0.43
- RNA-seq results: FAM111A expression (gene FAM111A, hepatocytes): −0.26
- RNA-seq results: FAM111B expression (gene FAM111B, hepatocytes): −1.74
- RNA-seq results: FAN1 expression (gene FAN1, hepatocytes): 0.14
- RNA-seq results: FARS2 expression (gene FARS2, hepatocytes): 0.06
- RNA-seq results: FASLG expression (gene FASLG, hepatocytes): −1.19
- RNA-seq results: FGA expression (gene FGA, hepatocytes): −0.25
- RNA-seq results: FGD1 expression (gene FGD1, hepatocytes): −0.63
- RNA-seq results: FGFR2 expression (gene FGFR2, hepatocytes): 0.15
- RNA-seq results: FIG4 expression (gene FIG4, hepatocytes): 0
- RNA-seq results: FIS1 expression (gene FIS1, hepatocytes): 0.52
- RNA-seq results: FTCD expression (gene FTCD, hepatocytes): −0.05
- RNA-seq results: FTH1 expression (gene FTH1, hepatocytes): 0.6
- RNA-seq results: FUCA1 expression (gene FUCA1, hepatocytes): 0.01
- RNA-seq results: FXN expression (gene FXN, hepatocytes): −0.17
- RNA-seq results: G6PC3 expression (gene G6PC3, hepatocytes): −0.07
- RNA-seq results: G6PC expression (gene G6PC, hepatocytes): −0.17
- RNA-seq results: G6PD expression (gene G6PD, hepatocytes): −0.05
- RNA-seq results: GALK1 expression (gene GALK1, hepatocytes): 0.4
- RNA-seq results: GALK2 expression (gene GALK2, hepatocytes): 0.22
- RNA-seq results: GALT expression (gene GALT, hepatocytes): −0.21
- RNA-seq results: GATA6 expression (gene GATA6, hepatocytes): 0.17
- RNA-seq results: GATM expression (gene GATM, hepatocytes): −0.33
- RNA-seq results: GBA expression (gene GBA, hepatocytes): −0.07
- RNA-seq results: GBE1 expression (gene GBE1, hepatocytes): 0.39
- RNA-seq results: GCH1 expression (gene GCH1, hepatocytes): 0.23
- RNA-seq results: GCKR expression (gene GCKR, hepatocytes): −0.19
- RNA-seq results: GCLC expression (gene GCLC, hepatocytes): 0.13
- RNA-seq results: GOSH expression (gene GOSH, hepatocytes): 0.22
- RNA-seq results: RRM2B (gene RRM2B, hepatocytes): 0.48
- RNA-seq results: RSAD1 (gene RSAD1, hepatocytes): −0.11
- RNA-seq results: SAMHD1 (gene SAMHD1, hepatocytes): 0.25
- RNA-seq results: SC5D (gene SC5D, hepatocytes): −0.01
- RNA-seq results: SCARB1 (gene SCARB1, hepatocytes): −0.17
- RNA-seq results: SCN9A (gene SCN9A, hepatocytes): 0.25
- RNA-seq results: SDCCAG8 (gene SDCCAG8, hepatocytes): −0.03
- RNA-seq results: SEPN1 (gene SEPN1, hepatocytes): 0.28
- RNA-seq results: SERAC1 (gene SERAC1, hepatocytes): 0.29
- RNA-seq results: SERPINA1 (gene SERPINA1, hepatocytes): −0.19
- RNA-seq results: SERPING1 (gene SERPING1, hepatocytes): −0.11
- RNA-seq results: SERPINI1 (gene SERPINI1, hepatocytes): −0.19
- RNA-seq results: SETBP1 (gene SETBP1, hepatocytes): −0.14
- RNA-seq results: SFXN4 (gene SFXN4, hepatocytes): −0.46
- RNA-seq results: SLC10A1 (gene SLC10A1, hepatocytes): −0.03
- RNA-seq results: SLC10A3 (gene SLC10A3, hepatocytes): 0.11
- RNA-seq results: SLC10A5 (gene SLC10A5, hepatocytes): 0.18
- RNA-seq results: SLC10A7 (gene SLC10A7, hepatocytes): 0.23
- RNA-seq results: SLC11A2 (gene SLC11A2, hepatocytes): 0.32
- RNA-seq results: SLC19A1 (gene SLC19A1, hepatocytes): −0.21
- RNA-seq results: SLC19A2 (gene SLC19A2, hepatocytes): 0.32
- RNA-seq results: SLC19A3 (gene SLC19A3, hepatocytes): −0.31
- RNA-seq results: SLC22A1 (gene SLC22A1, hepatocytes): −0.22
- RNA-seq results: SLC22A5 (gene SLC22A5, hepatocytes): −0.06
- RNA-seq results: SLC25A1 (gene SLC25A1, hepatocytes): −0.33
- RNA-seq results: SLC25A10 (gene SLC25A10, hepatocytes): −0.31
- RNA-seq results: SLC25A12 (gene SLC25A12, hepatocytes): −0.27
- RNA-seq results: SLC25A13 (gene SLC25A13, hepatocytes): 0.25
- RNA-seq results: SLC25A15 (gene SLC25A15, hepatocytes): −0.09
- RNA-seq results: SLC25A19 (gene SLC25A19, hepatocytes): −0.43
- RNA-seq results: SLC25A20 (gene SLC25A20, hepatocytes): −0.35
- RNA-seq results: SLC25A29 (gene SLC25A29, hepatocytes): −0.13
- RNA-seq results: SLC25A32 (gene SLC25A32, hepatocytes): −0.10
